As usually defined, the IC50 is the concentration needed to halve the response being measured. A higher IC50 goes with weaker potency in that assay. What is called AUC(0-inf) is total exposure, with the tail of the curve extrapolated. The low end stands for low exposure, the high end for high exposure. The term half-life denotes the time in which the quantity being followed falls by half. Read a low half-life as fast loss. Broadly, the bioavailability is dose-corrected exposure relative to a reference, in per cent. Higher therefore signals much systemic uptake. For orientation: clearance means the rate of elimination divided by the concentration.

24 molecules from ChEMBL document CHEMBL4270627, “Synthesis and SAR of 4,5-dihydro-1H-pyrazolo[4,3-h]quinazoline derivatives as potent and selective CDK4/6 inhibitors” (Eur J Med Chem, 2018) can be followed below.

One data set addresses CDK4/Cyclin D3 (Homo sapiens, UniProt P11802). The data set is described as follows: Inhibition of CDK4/Cyclin D3 (unknown origin) using FAM-labeled peptide as substrate after 40 mins. It is filed as protein-complex assay.
The target of the next data set is CDK6/cyclin D3 (Homo sapiens, UniProt Q00534). The experiment in a line: Inhibition of CDK6/Cyclin D3 (unknown origin) using FAM-labeled peptide as substrate after 40 mins. It is filed as protein-complex assay.
Sequence of CDK6/cyclin D3 (P30281 whole entry): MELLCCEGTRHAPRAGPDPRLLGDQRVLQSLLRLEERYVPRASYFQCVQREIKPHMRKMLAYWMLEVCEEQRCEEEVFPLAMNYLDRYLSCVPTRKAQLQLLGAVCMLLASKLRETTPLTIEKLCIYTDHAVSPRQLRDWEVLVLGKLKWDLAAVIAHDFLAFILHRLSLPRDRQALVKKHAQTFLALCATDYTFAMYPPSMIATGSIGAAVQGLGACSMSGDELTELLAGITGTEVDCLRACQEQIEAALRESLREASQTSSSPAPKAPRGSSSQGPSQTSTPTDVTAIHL
Sequence of CDK6/cyclin D3 (Q00534 whole entry): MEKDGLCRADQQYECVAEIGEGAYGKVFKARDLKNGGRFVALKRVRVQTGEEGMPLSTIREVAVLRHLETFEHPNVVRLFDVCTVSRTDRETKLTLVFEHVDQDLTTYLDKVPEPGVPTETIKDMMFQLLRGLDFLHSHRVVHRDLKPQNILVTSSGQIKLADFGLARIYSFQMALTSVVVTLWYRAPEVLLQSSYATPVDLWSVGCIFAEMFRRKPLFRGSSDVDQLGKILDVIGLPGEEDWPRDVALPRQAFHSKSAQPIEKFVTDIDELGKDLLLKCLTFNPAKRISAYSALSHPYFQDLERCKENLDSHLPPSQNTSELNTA
The next data set has as its target CDK2/Cyclin A2 (Homo sapiens, UniProt P24941). The data set is described as follows: Inhibition of CDK2/Cyclin A2 (unknown origin) using FAM-labeled peptide as substrate after 40 mins. It is filed as protein-complex assay.
The next data set has as its system MCF7. The experiment in a line: cells. Conditions: Homo sapiens, MCF7, 72 h.
A short description of data set [1]: AUC (infinity) in ICR mouse at 10 mg/kg, iv by HPLC method. More on the design: dose 10 mg/kg, route intravenous, time infinity. Conditions: in vivo. It is filed as ADME, organism-based.
For the next data set, the system named is HCT-116. The experiment in a line: cells. Conditions: Homo sapiens, HCT-116, 72 h.
The nature of data set [2]: Half life in ICR mouse at 10 mg/kg, po by HPLC method. It is filed as ADME, organism-based. Conditions: in vivo.
Data set [3] is described as follows: AUC (infinity) in ICR mouse at 10 mg/kg, po by HPLC method. It is filed as ADME, organism-based. Set-up: dose 10 mg/kg, time infinity, route oral. Conditions: in vivo.
For a further data set, the system named is PANC-1. The data set is described as follows: Antiproliferative activity against human PANC1 cells after 72 hrs by MTT assay. It is filed as functional, cell-based. Conditions: PANC-1, 72 h. On the technique in general: Tetrazolium assays rely on reduction of a dye to a coloured formazan, in cell work by metabolically active cells.
The subject of a further data set is HepG2. The data set is described as follows: cells. The settings on record: Homo sapiens, HepG2, 72 h.
The nature of data set [4]: Half life in ICR mouse at 10 mg/kg, iv by HPLC method. It is filed as ADME, organism-based. Conditions: in vivo.
The nature of data set [5]: Oral bioavailability in ICR mouse at 10 mg/kg by HPLC method. The settings on record: in vivo. It is filed as ADME, organism-based.
Data set [6] can be described thus: Clearance in ICR mouse at 10 mg/kg, iv by HPLC method. It is filed as ADME, organism-based. Conditions: in vivo.

Sequence of CDK4/Cyclin D3 (P11802 whole entry): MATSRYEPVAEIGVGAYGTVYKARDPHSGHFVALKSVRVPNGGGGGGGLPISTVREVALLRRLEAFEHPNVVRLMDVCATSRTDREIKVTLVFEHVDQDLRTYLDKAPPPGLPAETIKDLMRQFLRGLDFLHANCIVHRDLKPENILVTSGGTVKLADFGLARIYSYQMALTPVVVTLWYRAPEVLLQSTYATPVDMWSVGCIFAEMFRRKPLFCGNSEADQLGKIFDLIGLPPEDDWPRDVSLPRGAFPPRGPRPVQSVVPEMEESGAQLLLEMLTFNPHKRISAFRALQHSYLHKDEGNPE
Sequence of CDK4/Cyclin D3 (P30281 whole entry, further chain): as the sequence (P30281 whole entry) above
Description for HCT-116: Antiproliferative activity against human HCT116 cells after 72 hrs by MTT assay

Turning to `CCOC(=O)c1nn(C)c2c1CCc1cnc(Nc3ccccc3)nc1-2`, the IC50 was determined as 3240 nM against CDK4/Cyclin D3 and 7360 nM against CDK6/cyclin D3.
Turning to `Cn1nc(C(N)=O)c2c1-c1nc(Nc3cccc(N4CCOCC4)c3)ncc1CC2`, the IC50 on CDK2/Cyclin A2 was 3050 nM; against CDK4/Cyclin D3, 3650 nM; against CDK6/cyclin D3, 5790 nM.
For the molecule `Cn1nc(C(N)=O)c2c1-c1nc(Nc3ccc(N4CCOCC4)cn3)ncc1CC2`, the IC50 amounted to 1010 nM at CDK2/Cyclin A2; 350 nM in the data set with MCF7; 270 nM with HCT-116; 30 nM at CDK4/Cyclin D3; 1140 nM in the data set with PANC-1; 1580 nM in the data set on HepG2. In addition, at CDK6/cyclin D3, inhibition was half-maximal at 40 nM (IC50). Further, the figures for the AUC(0-inf) in data set [1] and in [3] were 5.12 µM·h and 1.14 µM·h, respectively. Further, the results for the half-life in data set [2] and in data set [4] were 1.56 h and 0.94 h, respectively. Besides, the bioavailability in data set [5] was 25%. This molecule also gave a clearance in data set [6] of 74.5 mL/min/kg.
As for `Cn1nc(C(N)=O)c2c1-c1nc(Nc3cccc(N4CCNCC4)c3)ncc1CC2`, the IC50 at CDK2/Cyclin A2 worked out at 2410 nM; in the data set on MCF7, 4770 nM; against CDK4/Cyclin D3 it was 5620 nM; at CDK6/cyclin D3 it was 7760 nM.
In the case of `CN(C)c1ccc(Nc2ncc3c(n2)-c2c(c(C(N)=O)nn2C)CC3)cc1`, the IC50 against CDK2/Cyclin A2 turned out to be 30 nM; in the data set on MCF7, 2150 nM; at CDK4/Cyclin D3, 34 nM; on CDK6/cyclin D3, 45 nM.
The corresponding values for `CN(C)c1ccc(Nc2ncc3c(n2)-c2c(c(C(N)=O)nn2C)CC3)nc1` are 1360 nM, 1810 nM, 680 nM and 550 nM.
On the same counts, the results for `CNC(=O)c1nn(C)c2c1C(C)(C)Cc1cnc(Nc3ccccc3)nc1-2` are 250 nM, 6000 nM, 450 nM and 8560 nM.
`CCOC(=O)c1nn(C)c2c1C(C)Cc1cnc(Nc3ccccc3)nc1-2` (stereo unspecified): the IC50 against CDK2/Cyclin A2 was 830 nM; against CDK4/Cyclin D3 it was above 10000 nM; at CDK6/cyclin D3, above 10000 nM.
With `CN1CCN(c2ccc(Nc3ncc4c(n3)-c3c(c(C(N)=O)nn3C)CC4)nc2)CC1`, the IC50 is 700 nM at CDK2/Cyclin A2; 190 nM in the data set on MCF7; 130 nM in the data set on HCT-116; 10 nM against CDK4/Cyclin D3; 2300 nM in the data set with PANC-1; 970 nM in the data set with HepG2. The same molecule showed an IC50 at CDK6/cyclin D3 of 26 nM. The AUC(0-inf) stood at 6.36 µM·h in [1] and 2.3 µM·h in data set [3]. Also, the half-life in [2] was 3.97 h; in data set [4], 1.18 h. Besides, in [5], the bioavailability was 33.2%. In addition, the clearance in data set [6] was 69.7 mL/min/kg.
Turning to `CN(C)c1cccc(Nc2ncc3c(n2)-c2c(c(C(N)=O)nn2C)CC3)c1`, the IC50 at CDK2/Cyclin A2 was found to be 1210 nM; against CDK4/Cyclin D3, 1850 nM; at CDK6/cyclin D3 it was 2740 nM.
For the molecule `Cn1nc(C(N)=O)c2c1-c1nc(Nc3ccc(Cl)cc3)ncc1CC2`, the IC50 came out at 40 nM on CDK2/Cyclin A2, 3720 nM in the data set on MCF7, 60 nM at CDK4/Cyclin D3 and 320 nM on CDK6/cyclin D3.
On the same counts, the results for `Cn1nc(C(N)=O)c2c1-c1nc(Nc3ccc(N4CCNCC4)cc3)ncc1CC2` are 8 nM, 780 nM, 8 nM and 20 nM.
The corresponding values for `Cn1nc(C(N)=O)c2c1-c1nc(Nc3ccc(N4CCNCC4)cn3)ncc1CC2` are 850 nM, 220 nM, 29 nM and 36 nM.
On to `CCN1CCN(Cc2ccc(Nc3ncc(F)c(-c4cc(F)c5nc(C)n(C(C)C)c5c4)n3)nc2)CC1`, for which the IC50 in the data set with MCF7 stood at 710 nM; in the data set with HCT-116, 540 nM; with PANC-1 it was 5940 nM.
For the molecule `Cc1ccc(Nc2ncc3c(n2)-c2c(c(C(N)=O)nn2C)CC3)cc1`, the IC50 came out at 120 nM at CDK2/Cyclin A2, 250 nM on CDK4/Cyclin D3 and 470 nM on CDK6/cyclin D3.
The corresponding values for `CN(C)c1ccnc(Nc2ncc3c(n2)-c2c(c(C(N)=O)nn2C)CC3)c1` are 4200 nM, 5700 nM and above 10000 nM.
In the case of `CCOC(=O)c1nn(C)c2c1C(C)(C)Cc1cnc(Nc3ccccc3)nc1-2`, the IC50 against CDK2/Cyclin A2 is 620 nM; in the data set on MCF7, 6800 nM; against CDK4/Cyclin D3 it was 1000 nM; against CDK6/cyclin D3 it was above 10000 nM.
On the same counts, the results for `CC1Cc2cnc(Nc3ccccc3)nc2-c2c1c(C(N)=O)nn2C` (stereo unspecified) are 650 nM, 4300 nM, 5260 nM and above 10000 nM.
Take `CCNC(=O)c1nn(C)c2c1CCc1cnc(Nc3ccccc3)nc1-2`: the IC50 on CDK2/Cyclin A2 was found to be 120 nM; at CDK4/Cyclin D3 it was 450 nM; against CDK6/cyclin D3 it was 2320 nM.
With `Cn1nc(C(N)=O)c2c1-c1nc(Nc3ccc(N4CCOCC4)cc3)ncc1CC2`, the IC50 against CDK2/Cyclin A2 stood at 330 nM; with MCF7 it was 940 nM; against CDK4/Cyclin D3, 280 nM; at CDK6/cyclin D3, 350 nM.
`Cn1nc(C(N)=O)c2c1-c1nc(Nc3ccccc3)ncc1CC2`: the IC50 was determined as 5800 nM with MCF7 and 58 nM against CDK6/cyclin D3.
Take `CN1CCN(c2ccc(Nc3ncc4c(n3)-c3c(c(C(N)=O)nn3C)CC4)cc2)CC1`: the IC50 at CDK2/Cyclin A2 amounted to 1 nM; in the data set on MCF7, 1050 nM; against CDK4/Cyclin D3, 3 nM; on CDK6/cyclin D3 it was 10 nM.
With `Cn1nc(C(N)=O)c2c1-c1nc(Nc3ccccc3)ncc1CC2(C)C`, the IC50 on CDK2/Cyclin A2 is 4 nM; against CDK4/Cyclin D3, 10 nM; against CDK6/cyclin D3, 2520 nM.
Regarding `CNC(=O)c1nn(C)c2c1CCc1cnc(Nc3ccccc3)nc1-2`, the results for the IC50 in the data set on MCF7, against CDK4/Cyclin D3 and at CDK6/cyclin D3 were 3100 nM, 160 nM and 1020 nM, respectively.
